Holding throughout (format): biochemical
One data set addresses T1, SirT1 (Homo sapiens, UniProt Q96EB6).
T1 sequence (Q96EB6 1-747): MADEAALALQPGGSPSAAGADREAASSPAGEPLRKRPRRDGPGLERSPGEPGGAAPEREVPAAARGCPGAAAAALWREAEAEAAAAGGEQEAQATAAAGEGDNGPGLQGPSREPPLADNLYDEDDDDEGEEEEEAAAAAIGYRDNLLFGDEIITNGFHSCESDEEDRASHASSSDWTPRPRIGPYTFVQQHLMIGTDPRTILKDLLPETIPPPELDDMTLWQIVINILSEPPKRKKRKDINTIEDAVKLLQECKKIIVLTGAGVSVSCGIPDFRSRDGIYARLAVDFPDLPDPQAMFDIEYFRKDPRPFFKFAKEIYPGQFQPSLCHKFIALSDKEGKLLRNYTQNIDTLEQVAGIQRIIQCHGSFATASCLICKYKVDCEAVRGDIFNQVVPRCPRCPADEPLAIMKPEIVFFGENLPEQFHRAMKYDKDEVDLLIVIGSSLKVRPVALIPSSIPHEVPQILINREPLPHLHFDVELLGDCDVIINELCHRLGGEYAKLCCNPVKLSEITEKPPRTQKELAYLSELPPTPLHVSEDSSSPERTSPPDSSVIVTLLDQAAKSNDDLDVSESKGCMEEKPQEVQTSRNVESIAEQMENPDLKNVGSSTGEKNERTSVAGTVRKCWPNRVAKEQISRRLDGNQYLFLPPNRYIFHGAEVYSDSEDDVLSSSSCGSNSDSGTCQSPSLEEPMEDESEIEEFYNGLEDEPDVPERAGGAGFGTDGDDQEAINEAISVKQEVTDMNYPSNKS
Nature of the data set: SirT1 deacetylation, Km of H3 with and without ssDNA. The following applies: 100 ng/μl ssDNA. An excerpt: The quantified data were fit into Michaelis-Menten equation to get Km of H3.

The target in data set [1] is T2, truncated SirT6 (deletion of N terminal 17 amino acids) (Homo sapiens, UniProt Q8N6T7).
T2 construct: The truncated SIRT6 was cloned similarly with the full length SIRT6; poly-histidine (pET28a) (N); made in house; host or cells: E. coli BL21 Codon-plus RIPL
In words: Deacetylation rate of truncated SirT6 with suramin or single stranded DNA. The following applies: 50 μM suramin or 100 ng/μl single stranded DNA; 800 μM NAD, 480 μM H3, 10 μM enzyme. An excerpt:
The deacetylation rate of different truncated SirT6 was normalized to the rate of full length SirT6 for the comparison.
The truncated SIRT6 was cloned similarly with the full length SIRT6. The primers used in the cloning of different truncated SIRT6 are the following: SIRT6Δ2-7 Forward 5′ GCTAGC ATGGGGCTGTCGCCGTACGCG 3′ (SEQ ID NO: 4); SIRT6Δ2-12 Forward 5′ GCTAGC ATG […] 3′ (SEQ ID NO: 5); SIRT6Δ2-18 Forward 5′ GCTAGC ATGGGCCTCCCGGAGATCTTCGAC 3′ (SEQ ID NO: 6); SIRT6Δ2-51 Forward 5′ 5′ GCTAGC ATGACGGGTGCCGGCATCAGCACT 3′ (SEQ ID NO: 7). The common reverse primer is 5′[…] 3′ (SEQ ID NO: 8). The truncated SIRT6 was amplified by PCR reaction. The PCR product was then ligated into pSTblue-1 (Novagen). After digestion with NheI and BamHI, the fragment containing SIRT6 gene was ligated into pET28a vector (Novagen). The SIRT6 truncated sequence in pET28a plasmid was confirmed by DNA sequencing, and the plasmid was then transformed into BL21Codon-plus RIPL cells (Stratagene). The protein expression and purification were the same as the full length SIRT6 as described above.

For the next data set, the target named is T3, SirT6 (Homo sapiens, UniProt Q8N6T7).
T3 construct: The protein expression and purification were the same as the full length SIRT6 as described above; made in house; host or cells: E. coli BL21 Codon-plus RIPL
Nature of the data set: Determination of Kd of DNA for SirT6 activation by HPLC (Example 2). The following applies: 800 μM NAD, 480 μM H3, 10 μM SirT6, 2 hours 37° C.; fit Activation (fold)=1+m*x/(Kd+x). The procedure:
FIG. 5A depicts a schematic of DNA structure. […] After 2 hours incubation at 37° C., either the deacetylated H3 was separated from H3 in the reaction containing the digested calf thymus DNA or AADPR was separated from other components in the reaction containing ssDNA, the plasmid, or dsDNA.
The plasmid pSTBlue was digested with BamHI and EcoRV and purified by […]™ III kit. […] The AADPR was separated by HPLC and the quantified data were fit into Michaelis-Menten equation to get Km of H3.
In the enzymatic reaction, the following DNA was used.
Calf thymus DNA (USB Corporation), which was digested with EcoRI and then purified using Spinprep Gel DNA Kit (Novagen);
ssDNA (5′ […] 3′ (SEQ ID NO: 9), Integrated DNA Technologies);
dsDNA (forward 5′ […] 3′ (SEQ ID NO: 10), reverse 5′ […] 3′ (SEQ ID NO: 11), Integrated DNA Technologies); and
pSTBlue plasmid, which was amplified using DH5α cells and purified by WIZARD™ PLUS (Midiprep) DNA purification system (Promega).
The precipitated proteins and other insolubles were removed by centrifugation at 15,000 rpm for 5 minutes. DNA in the supernatant was further removed by centrifugation at 15,000 rpm for 10 minutes using Microcon with 10 kDa cutoff (Millipore). In the experiment with the digested calf thymus DNA, the peptides were separated by a Waters Xterra RP-18 column using a gradient of 0-30% acetonitrile in 0.1% trifluoroacetic acid. […]

T2 sequence (Q8N6T7 with tags, fused parts or gaps): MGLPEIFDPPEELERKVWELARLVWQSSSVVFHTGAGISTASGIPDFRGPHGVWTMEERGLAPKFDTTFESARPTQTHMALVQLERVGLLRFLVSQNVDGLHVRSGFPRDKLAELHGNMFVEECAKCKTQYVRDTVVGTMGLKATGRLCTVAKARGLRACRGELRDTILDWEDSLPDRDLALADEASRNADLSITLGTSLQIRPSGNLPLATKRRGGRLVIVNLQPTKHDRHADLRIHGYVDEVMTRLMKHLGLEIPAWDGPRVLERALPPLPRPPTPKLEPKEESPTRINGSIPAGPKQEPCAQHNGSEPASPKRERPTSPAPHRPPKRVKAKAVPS
T3 sequence (Q8N6T7 whole entry): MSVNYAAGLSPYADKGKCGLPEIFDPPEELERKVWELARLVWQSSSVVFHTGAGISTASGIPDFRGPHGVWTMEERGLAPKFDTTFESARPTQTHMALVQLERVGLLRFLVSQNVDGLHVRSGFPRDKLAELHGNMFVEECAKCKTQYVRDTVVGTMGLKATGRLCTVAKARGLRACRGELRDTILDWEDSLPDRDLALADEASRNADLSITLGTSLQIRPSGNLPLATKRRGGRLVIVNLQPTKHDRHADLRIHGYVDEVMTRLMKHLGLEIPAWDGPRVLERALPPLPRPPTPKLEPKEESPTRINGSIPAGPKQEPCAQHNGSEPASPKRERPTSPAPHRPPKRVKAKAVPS

Consider “ssDNA: ssDNA 5′ GGGGATCCATGAAGATGAGCTTTGCGTTGACT 3′ (SEQ ID NO: 9), Integrated DNA Technologies (DNA, backbone and methylation of C not given here)”, for which, in the data set with SirT1, the “Deacetylation activity of SirT1” value was “not activated”. For the same substance, the “Activation of truncated SirT6 deacetylation” value in data set [1] is listed as “lost of activation”. Also, the “Kd of DNA for activation of SirT6” value with SirT6 worked out at 127.7 µg/mL.

These data come from patent publication US9322049B2, “Activation and activators of SirT6” (CORNELL UNIVERSITY, priority 2009, dated 2016).
